Tests used:
[1] = test system: HDAC activity of mouse liver nuclear extracts; assay: HDAC activity fluorometric assay, crude nuclear extracts; type: biochemical; design: dose or concentration left out as unconfirmed; details: mean ± S.D.
Protocol: (§1) FIG. 5A-5D. […] Deacetylation was measured using a fluorimetric assay. […] AMPKa was immunoprecipitated and immunoblotted for AMPKa and acetylated lysine (D). Immunoblots shown in D are representative of three independent experiments. Data in graphs are reported as the mean […] S.D. of samples from four independent experiments. […] DMSO, dimethylsulfoxide.
(§2) Analysis of HDAC activity was performed using an HDAC activity fluorometric assay kit (Caymen Chemicals, Ann Arbor, Mich.) and was carried out according to the manufacturer's instructions. Crude nuclear extracts were prepared from primary mouse hepatocytes as described in the manufacturer's instructions.

human recombinant HDAC1 = human recombinant HDAC1 (Homo sapiens, UniProt Q13547); assay: HDAC activity fluorometric assay, recombinant HDAC1; type: biochemical; details: 800 mM VPA; 1 mM TSA; 20 mM metabolites; mean ± S.D.
Protocol: as §1, §2

AMPK [2] = assay: AMPK/ACC phosphorylation in primary mouse hepatocytes (immunoblot); type: cell-based; design: Phosphorylation (Ser79) of ACC / AMPK protein levels / ACC protein levels / Phosphorylation of ACC stimulated by VPA, in presence of AMPK inhibitor: dose or concentration left out as unconfirmed; details: for Levels of phosphorylated AMPK/ACC compared with VPA: 20 mM metabolite vs 800 mM VPA, 2 hours; for Levels of phosphorylated AMPK/ACC at higher concentration: 100 mM metabolite (data not shown)
Protocol: (§3) Proteins (20 mg) were resolved by sodium dodecyl sulfate polyacrylamide gel electrophoresis, electrotransferred to a nitrocellulose membrane, and probed using antibodies against AMPKa, phosphorylated (p-) AMPKa (Thr172), ACC, p-ACC (Ser79), and b-actin (obtained from Cell Signaling Technology, Danvers, Mass.).

ob/ob mice = assay: In vivo mouse study, 14 days via drinking water; details: for Accumulation of fats in the liver (histology) compared with untreated mice: hematoxylin and eosin staining; for Body mass day 1: day 1 prior to treatment; for Body mass day 7 / Body mass day 14: 0.26% (w/v) VPA or 0.5% (w/v) metformin in drinking water
Protocol: FIG. 6A-6E. […] A section of each liver was analyzed using hemotoxylin and eosin staining Histology images are representative of four mice per treatment group (A). The mass of each liver was measured and calculated as a ratio to body mass (B). Serum glucose (C) and serum triglyceride (D) concentrations were measured using colorimetric assays. ALT was measured using a colorimetric assay to assess for hepatotoxicity (E). Data in graphs are reported as the mean […] S.D. of four mice per cohort.
All treatments of mice as a part of this study were in accordance with protocols that were approved by the Institutional Animal Care and Use Committee of The Johns Hopkins University School of Medicine. […] Body masses were recorded on day 1 prior to treatment, day 7, and day 14. After 14 days of drug treatments, all mice were euthanized by isoflurane inhalation followed by cervical dislocation, and whole blood was collected immediately. The livers were weighed immediately, rinsed in cold phosphate-buffered saline, and fixed in 10% formalin for 48 hours for hematoxylin and eosin staining.
Serum glucose was analyzed using a Colorimetric Glucose Assay obtained from BioVision, Inc. (Milpitas, Calif.) and was performed according to manufacturer's instructions. Serum triglycerides were analyzed utilizing a Serum Triglyceride Determination Kit obtained from Sigma-Aldrich and was performed according to manufacturer's instructions.

AMPKa = AMPKa acetylation status in hepatocytes (immunoprecipitation, acetylated lysine immunoblot); type: cell-based, mouse
Protocol: as §1

[3] = 10 mg/kg/day in adults; cited from earlier work
AMPK [4] = assay: AMPK/ACC phosphorylation in primary human hepatocytes (immunoblot); type: cell-based; design: dose or concentration left out as unconfirmed; details: 1 to 24 hours; following 1 hour; each of four donors
Protocol: Primary human hepatocytes were obtained from XenoTech LLC (Lenexa, Kans.). Four preparations were used: […]. The hepatocytes had reported viabilities of 95.4, 74.7, 77.9, and 74.9%, respectively. Upon receipt, the shipping medium was changed to Williams' E medium containing 10% FBS, penicillin, streptomycin, and L-glutamine. Following 24 hours of incubation at 37° C. and 5% CO2, the media was changed to 5% FBS, penicillin, streptomycin, and L-glutamine 4 hours prior to treatments.
as §3, with “Cells were harvested as previously described (Bumpus, 2011). Proteins” for “Proteins”

human recombinant HDAC1, sequence (Q13547 whole entry): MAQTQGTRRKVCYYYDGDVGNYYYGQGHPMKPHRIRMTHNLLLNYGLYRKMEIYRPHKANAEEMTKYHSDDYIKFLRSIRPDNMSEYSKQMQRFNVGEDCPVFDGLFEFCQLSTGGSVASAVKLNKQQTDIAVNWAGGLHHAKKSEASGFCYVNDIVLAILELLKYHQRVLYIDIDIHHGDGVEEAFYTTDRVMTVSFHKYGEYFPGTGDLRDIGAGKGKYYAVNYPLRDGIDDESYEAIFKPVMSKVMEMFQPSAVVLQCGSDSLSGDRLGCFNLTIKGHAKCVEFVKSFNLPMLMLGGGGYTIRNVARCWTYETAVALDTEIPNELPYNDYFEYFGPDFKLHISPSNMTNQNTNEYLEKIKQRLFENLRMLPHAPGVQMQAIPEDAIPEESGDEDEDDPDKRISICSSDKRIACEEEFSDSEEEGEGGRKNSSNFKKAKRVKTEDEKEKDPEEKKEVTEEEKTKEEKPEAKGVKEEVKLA

## C=CCC(CCC)C(=O)O (racemic) [4-ene-VPA, (+/−)-2-Propyl-4-pentenoic Acid]
[1]
  deacetylation as compared with samples treated with vehicle only: 90.1±3.9%
Human recombinant HDAC1
  deacetylation: 81.5±15.5%
AMPK [2]
  Levels of phosphorylated AMPK/ACC compared with VPA: greater than treatment with VPA itself
  Levels of phosphorylated AMPK/ACC at higher concentration: commensurate with those observed using 20 mM of metabolites

## CC/C=C(\CCC)C(=O)O [2-ene-VPA, (E,Z) 2-Propyl-2-pentenoic Acid]
[1]
  deacetylation as compared with samples treated with vehicle only: 93.6±3.6%
Human recombinant HDAC1
  deacetylation: 90±9.1%
AMPK [2]
  Levels of phosphorylated AMPK/ACC compared with VPA: greater than treatment with VPA itself
  Levels of phosphorylated AMPK/ACC at higher concentration: commensurate with those observed using 20 mM of metabolites

## CCCC(C(=O)O)C(O)CC (stereo not drawn) [3-OH-VPA, 3-Hydroxy-2-propylpentanoic Acid]
[1]
  deacetylation as compared with samples treated with vehicle only: 98±3.9%
Human recombinant HDAC1
  deacetylation: 86±16.8%
AMPK [2]
  Levels of phosphorylated AMPK/ACC compared with VPA: greater than treatment with VPA itself
  Levels of phosphorylated AMPK/ACC at higher concentration: commensurate with those observed using 20 mM of metabolites

## CCCC(C(=O)[O-])C(=O)CC.[Na+] (stereo not drawn) [3-keto-VPA, 3-oxo-2-propyl-pentanoic Acid Sodium Salt]
[1]
  deacetylation as compared with samples treated with vehicle only: 94±7.3%
Human recombinant HDAC1
  deacetylation: 90.9±15.2%

## Nn1nnc2ccccc21 [ABT, 1-aminobenzotriazole]
AMPK [2]; 1 mM ABT 1 hour prior to VPA for 2 hours
  Levels of phosphorylated AMPK, ABT and VPA compared with ABT alone: not elevated

## c1cc(-c2cnn3cc(-c4ccc(OCCN5CCCCC5)cc4)cnc23)ccn1 [Compound C, 6-[4-(2-piperidin-1-ylethoxy)phenyl]-3-pyridin-4-ylpyrazolo[1,5-a]pyrimidine]
AMPK [2]; Compound C 30 minutes prior to VPA for 2 hours
  Phosphorylation of ACC stimulated by VPA, in presence of AMPK inhibitor: abrogated

## CC(/C=C/C(=O)NO)=C\[C@@H](C)C(=O)c1ccc(N(C)C)cc1 [TSA, trichostatin A]
[1]
  deacetylation as compared with samples treated with vehicle only: 34.6±4.3%

## CCCC(CCC)C(=O)O [VPA, valproic acid]
[1]
  deacetylation as compared with samples treated with vehicle only: 76.4±1.2%
Human recombinant HDAC1
  deacetylation: 73.2±5%
ob/ob mice; 14 days
  Accumulation of fats in the liver (histology) compared with untreated mice: marked reduction
ob/ob mice
  Body mass day 1: 50.2 ± 3 g
  Body mass day 7: 51.8 ± 3 g
  Body mass day 14: 53.8 ± 2.7 g
ob/ob mice; mouse, in vivo
  Abnormalities in the histology of treated livers: did not detect any abnormalities
AMPKa
  Acetylation of AMPKa compared with vehicle treatment samples: commensurate
[3]
  Serum concentrations of VPA: 400 to 1000 µM
AMPK [2]; 2-hour treatment, concentrations from 200 mM to 2 mM
  Concentration at which maximal phosphorylation of AMPK and ACC was observed: 800 mM
AMPK [2]; VPA
  ACC protein levels: not significantly different
  AMPK protein levels: did not change significantly
AMPK [2]; VPA, time course 1-24 hours
  Phosphorylation (Ser79) of ACC: observed
AMPK [4]
  Phosphorylation of AMPK and ACC: observed

## CN(C)C(=N)N=C(N)N [metformin, Metformin]
ob/ob mice; 14 days
  Ratio of liver mass to body mass compared with untreated mice: significantly decreased
  Serum ALT activity: 13.3±4 mU/ml
  Serum glucose concentrations compared with untreated mice: significantly decreased
  Serum triglyceride concentrations compared with untreated mice: decreased
  Accumulation of fats in the liver (histology) compared with untreated mice: marked reduction
ob/ob mice
  Body mass day 1: 45.4 ± 6 g
  Body mass day 7: 47.4 ± 5.6 g
  Body mass day 14: 50 ± 6.1 g
